# How the values were obtained:
# [1] = molecular target: T1, Multidrug resistance-associated protein 1 (Homo sapiens, UniProt P33527); assay: Inhibition of human MRP1 expressed in Spodoptera frugiperda Sf9 cells assessed as inhibition of NEM-GS-induced vanadate-sensitive ATPase activity measured by generation of inorganic phosphate by spectrophotometry in presence of glutathione
# [2] = molecular target: T1, Multidrug resistance-associated protein 1; assay: Inhibition of vanadate-sensitive ATPase basal activity of human MRP1 expressed in Sf9 cells assessed as generation of inorganic phosphate at 10 uM by spectrophotometry in presence of glutathione; settings: sf9, 10 µM
# MRP1 [3] = molecular target: T2, MRP1 (Homo sapiens, UniProt P33527); assay: Inhibition of human MRP1 expressed in Spodoptera frugiperda Sf9 cells assessed as decrease in NEM-GS induced vanadate-sensitive ATPase activity measured by generation of inorganic phosphate at 100 uM by spectrophotometry in presence of glutathione; settings: Spodoptera frugiperda Sf9 cells expressing human MRP1, probe NEM-GS
# MRP1 [4] = molecular target: T2, MRP1; assay: Inhibition of human MRP1 expressed in Spodoptera frugiperda Sf9 cells assessed as decrease in NEM-GS induced vanadate-sensitive ATPase activity measured by generation of inorganic phosphate at 30 uM by spectrophotometry in presence of glutathione; settings: Spodoptera frugiperda Sf9 cells expressing human MRP1, probe NEM-GS
# T1 sequence (P33527 whole entry): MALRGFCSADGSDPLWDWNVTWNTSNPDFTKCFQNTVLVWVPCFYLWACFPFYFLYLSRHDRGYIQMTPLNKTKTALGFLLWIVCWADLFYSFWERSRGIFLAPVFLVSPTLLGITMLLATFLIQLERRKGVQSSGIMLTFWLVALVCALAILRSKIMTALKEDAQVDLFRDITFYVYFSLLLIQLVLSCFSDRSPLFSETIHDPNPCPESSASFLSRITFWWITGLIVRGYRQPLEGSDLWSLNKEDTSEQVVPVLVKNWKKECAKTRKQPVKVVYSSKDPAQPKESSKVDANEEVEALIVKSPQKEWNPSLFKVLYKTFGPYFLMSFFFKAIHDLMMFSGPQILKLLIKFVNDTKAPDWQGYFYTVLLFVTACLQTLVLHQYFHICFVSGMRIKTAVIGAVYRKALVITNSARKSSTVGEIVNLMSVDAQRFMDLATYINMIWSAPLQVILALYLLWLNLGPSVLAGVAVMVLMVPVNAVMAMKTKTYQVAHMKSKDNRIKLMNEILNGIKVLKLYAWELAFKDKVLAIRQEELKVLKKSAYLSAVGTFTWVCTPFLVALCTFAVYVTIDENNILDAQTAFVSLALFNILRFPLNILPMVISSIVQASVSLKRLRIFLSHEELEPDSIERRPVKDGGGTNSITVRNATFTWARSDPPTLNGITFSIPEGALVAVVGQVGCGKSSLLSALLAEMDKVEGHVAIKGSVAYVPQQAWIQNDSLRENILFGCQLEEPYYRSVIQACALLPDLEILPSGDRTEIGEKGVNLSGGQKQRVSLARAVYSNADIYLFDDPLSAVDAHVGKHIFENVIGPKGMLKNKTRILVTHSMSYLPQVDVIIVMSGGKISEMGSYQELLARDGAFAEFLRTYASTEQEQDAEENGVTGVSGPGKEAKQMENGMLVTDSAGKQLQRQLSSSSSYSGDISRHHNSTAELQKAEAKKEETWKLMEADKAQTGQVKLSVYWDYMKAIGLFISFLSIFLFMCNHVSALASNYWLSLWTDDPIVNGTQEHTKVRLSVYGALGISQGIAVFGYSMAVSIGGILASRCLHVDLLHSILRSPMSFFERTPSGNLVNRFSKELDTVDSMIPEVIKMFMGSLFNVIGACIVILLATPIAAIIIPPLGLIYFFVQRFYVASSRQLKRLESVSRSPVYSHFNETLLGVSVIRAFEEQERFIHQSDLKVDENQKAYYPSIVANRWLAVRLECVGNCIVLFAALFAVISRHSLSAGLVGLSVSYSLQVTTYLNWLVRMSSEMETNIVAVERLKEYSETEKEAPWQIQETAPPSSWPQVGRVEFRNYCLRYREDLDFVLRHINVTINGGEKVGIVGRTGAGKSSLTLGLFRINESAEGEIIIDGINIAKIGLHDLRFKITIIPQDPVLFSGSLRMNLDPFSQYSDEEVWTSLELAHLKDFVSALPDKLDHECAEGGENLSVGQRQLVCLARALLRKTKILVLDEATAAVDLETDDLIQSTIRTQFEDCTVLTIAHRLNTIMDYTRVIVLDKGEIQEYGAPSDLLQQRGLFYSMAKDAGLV
# T2 sequence (P33527 whole entry): as above
SMILES,inhibition (INH) [1],other results
CC1=C(C(=O)Nc2ccccn2)C(c2ncc[nH]2)C(C(=O)Nc2ccccn2)=C(C)N1,Not Active,
CC1=C(C(=O)Nc2ccccn2)C(c2ccc[nH]2)C(C(=O)Nc2ccccn2)=C(C)N1,,inhibition (INH) [2]: Active; inhibition at 100 µM (MRP1 [3]): 78%; inhibition at 30 µM (MRP1 [4]): 69.8%
CC1=C(C(=O)Nc2ccccc2)C(c2ccccn2)C(C(=O)Nc2ccccc2)=C(C)N1,Not Active,
CC1=C(C(=O)Nc2ccccc2)C(c2ccco2)C(C(=O)Nc2ccccc2)=C(C)N1,,inhibition (INH) [2]: Active; inhibition at 30 µM (MRP1 [4]): 52.8%
CC1=C(C(=O)Nc2ccccc2)C(c2ccc[nH]2)C(C(=O)Nc2ccccc2)=C(C)N1,Not Active,
CC1=C(C(=O)Nc2ccccc2)C(c2cccs2)C(C(=O)Nc2ccccc2)=C(C)N1,Not Active,

# Further lines, with some results ahead:
inhibition (INH) [1],SMILES,other results
Not Active,CC1=C(C(=O)Nc2ccccc2)C(c2ncc[nH]2)C(C(=O)Nc2ccccc2)=C(C)N1,
Not Active,CC1=C(C(=O)Nc2ccccc2)C(c2ccc(Cl)cc2)C(C(=O)Nc2ccccc2)=C(C)N1,
Not Active,CC1=C(C(=O)Nc2ccccn2)C(c2ccco2)C(C(=O)Nc2ccccn2)=C(C)N1,
Not Active,CC1=C(C(=O)Nc2ccc(C)cc2)C(c2ncc[nH]2)C(C(=O)Nc2ccc(C)cc2)=C(C)N1,
